From ChEMBL document CHEMBL4616699, “Characterization of Specific N-α-Acetyltransferase 50 (Naa50) Inhibitors Identified Using a DNA Encoded Library” (ACS Med Chem Lett, 2020) come the findings set out here.

Series [1] is described as follows: Dissociation constant, pKa of compound. Type of series: physicochemical.
Series [2] addresses T1, N-alpha-acetyltransferase 50 (Homo sapiens, UniProt Q9GZZ1).
T1 sequence (Q9GZZ1 whole entry): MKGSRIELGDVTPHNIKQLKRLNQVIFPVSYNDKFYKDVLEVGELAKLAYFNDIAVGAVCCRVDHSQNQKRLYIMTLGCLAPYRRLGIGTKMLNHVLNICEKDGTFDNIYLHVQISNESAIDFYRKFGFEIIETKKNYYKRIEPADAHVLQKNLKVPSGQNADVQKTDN
In words: Binding affinity to full length human N-terminal His-tagged/GST-tagged Naa50 expressed in Escherichia coli BL21(DE3) cells in by SPR analysis. For orientation: In SPR one partner is held on a chip, and binding of the other changes the refractive index at the surface.

Series [3] concerns the target T2, N-alpha-acetyltransferase 50 (Homo sapiens) (UniProt Q9GZZ1).
T2 sequence (whole entry): T1 sequence (Q9GZZ1 whole entry)
Description: Binding affinity to full length human N-terminal His-tagged/GST-tagged Naa50 expressed in Escherichia coli BL21(DE3) cells assessed as half life for dissociation by SPR analysis

As to `CNC(=O)c1csc([C@@H]2C[C@H](NC(=O)[C@@H]3CC(=O)N(C)C(=O)N3)CN2C(=O)c2ccc(-c3nn[nH]n3)cc2)n1`, the pKa – broadly, the pH at which an ionisable group is half protonated – in series [1] was 4.
In the case of `CC(=O)SCCNC(=O)CCNC(=O)[C@H](O)C(C)(C)COP(=O)(O)OP(=O)(O)OC[C@H]1O[C@@H](n2cnc3c(N)ncnc32)[C@H](O)[C@@H]1OP(=O)(O)O`, binding in series [2] was characterised by a dissociation constant (Kd) of 17.6 nM. The compound further came in with a T1/2 in series [3] of 4 min.
For `CC(C)(COP(=O)(O)OP(=O)(O)OC[C@H]1O[C@@H](n2cnc3c(N)ncnc32)[C@H](O)[C@@H]1OP(=O)(O)O)[C@@H](O)C(=O)NCCC(=O)NCCS` [COENZYME_A] the same measures were 156 nM and 0.4 min.
`Cc1csc([C@@H]2C[C@H](NC(=O)[C@@H]3CC(=O)N(C)C(=O)N3)CN2C(=O)c2ccc(C(=O)O)cc2)n1`: in series [1], the pKa amounted to 3.6.
The same measure, in the same setting: to `Cc1csc([C@@H]2C[C@H](NC(=O)[C@@H]3CC(=O)N(C)C(=O)N3)CN2C(=O)c2ccc(-c3nnc[nH]3)cc2)n1` belongs 8.9.
The same measure, in the same setting: as for `Cc1csc([C@@H]2C[C@H](NC(=O)[C@@H]3CC(=O)N(C)C(=O)N3)CN2C(=O)c2ccc(-c3nn[nH]n3)cc2)n1`, the figure is 3.7.
